From US7504423B2, “α-amino acid derivatives and use thereof as medicines” (Mitsubishi Tanabe Pharma Corporation, priority 2003, dated 2009)
pIC50: −log10 of the molar value.

Columns and labels:
[1] = target: T1, Rat plasma DPP-IV (Rattus norvegicus, UniProt P14740); assay: Plasma DPP-IV inhibitory activity (fluorescence assay, Gly-Pro-MCA substrate), rat plasma; assay type: biochemical; conditions: rat plasma (10-fold diluted), room temperature, 60 min
T1 construct: Rat plasma DPP-IV; from tissue; host or cells: rat plasma
T1 sequence (P14740 38-767 limits assumed): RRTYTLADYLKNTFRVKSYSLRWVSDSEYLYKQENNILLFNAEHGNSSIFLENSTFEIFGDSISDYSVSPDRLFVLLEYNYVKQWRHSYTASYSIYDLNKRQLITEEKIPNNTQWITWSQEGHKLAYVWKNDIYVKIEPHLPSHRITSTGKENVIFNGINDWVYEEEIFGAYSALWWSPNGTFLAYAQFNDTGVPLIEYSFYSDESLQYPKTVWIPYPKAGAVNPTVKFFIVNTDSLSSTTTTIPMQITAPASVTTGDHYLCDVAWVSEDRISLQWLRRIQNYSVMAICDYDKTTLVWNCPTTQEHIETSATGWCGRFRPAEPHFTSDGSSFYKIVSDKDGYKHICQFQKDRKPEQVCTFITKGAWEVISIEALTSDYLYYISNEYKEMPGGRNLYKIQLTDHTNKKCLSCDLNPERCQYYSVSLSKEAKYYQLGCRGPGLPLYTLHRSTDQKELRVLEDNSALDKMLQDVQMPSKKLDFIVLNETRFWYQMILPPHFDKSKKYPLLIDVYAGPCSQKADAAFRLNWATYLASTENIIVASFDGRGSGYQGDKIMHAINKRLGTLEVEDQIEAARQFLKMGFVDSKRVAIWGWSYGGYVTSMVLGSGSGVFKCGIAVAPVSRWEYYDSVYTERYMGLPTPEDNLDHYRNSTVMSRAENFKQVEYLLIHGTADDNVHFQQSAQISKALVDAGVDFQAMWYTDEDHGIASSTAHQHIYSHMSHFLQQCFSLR
Procedure: (§1) (Plasma DPP-IV Inhibitory Activity)
(§2) The plasma DPP-IV inhibitory activity of human and rat was measured by the fluorescence assay method. Using Gly-Pro-MCA (Peptide Institute Inc.) as a DPP-IV specific fluorescent substrate, reaction solutions having the following compositions and containing test substances having various concentrations were incubated at room temperature for 60 min and the measured (SPECTRA FLUOR, TECAN) fluorescent intensity (Excitation 360 nm/Emission 465 nm) was taken as the DPP-IV activity.
(§3) As a buffer, 0.003% Brij-35-containing phosphate buffer (PBS, Sigma-Aldrich Co.) was used.
(§4) A reaction solution free of the test substance was used as a control.
(§5) The inhibitory rate of the test substance relative to the reaction of the control was calculated, and IC50 values were determined by logistic analysis. The IC50 values of the plasma DPP-IV inhibitory activity of the present invention as determined by the above method are shown in the following table.

[2] = target: T2, Human plasma DPP-IV (Homo sapiens, UniProt P27487); assay: Plasma DPP-IV inhibitory activity (fluorescence assay, Gly-Pro-MCA substrate), human plasma; assay type: biochemical; conditions: human plasma (10-fold diluted), room temperature, 60 min
T2 construct: Human plasma DPP-IV; from tissue; host or cells: human plasma
T2 sequence (P27487 39-766 limits assumed): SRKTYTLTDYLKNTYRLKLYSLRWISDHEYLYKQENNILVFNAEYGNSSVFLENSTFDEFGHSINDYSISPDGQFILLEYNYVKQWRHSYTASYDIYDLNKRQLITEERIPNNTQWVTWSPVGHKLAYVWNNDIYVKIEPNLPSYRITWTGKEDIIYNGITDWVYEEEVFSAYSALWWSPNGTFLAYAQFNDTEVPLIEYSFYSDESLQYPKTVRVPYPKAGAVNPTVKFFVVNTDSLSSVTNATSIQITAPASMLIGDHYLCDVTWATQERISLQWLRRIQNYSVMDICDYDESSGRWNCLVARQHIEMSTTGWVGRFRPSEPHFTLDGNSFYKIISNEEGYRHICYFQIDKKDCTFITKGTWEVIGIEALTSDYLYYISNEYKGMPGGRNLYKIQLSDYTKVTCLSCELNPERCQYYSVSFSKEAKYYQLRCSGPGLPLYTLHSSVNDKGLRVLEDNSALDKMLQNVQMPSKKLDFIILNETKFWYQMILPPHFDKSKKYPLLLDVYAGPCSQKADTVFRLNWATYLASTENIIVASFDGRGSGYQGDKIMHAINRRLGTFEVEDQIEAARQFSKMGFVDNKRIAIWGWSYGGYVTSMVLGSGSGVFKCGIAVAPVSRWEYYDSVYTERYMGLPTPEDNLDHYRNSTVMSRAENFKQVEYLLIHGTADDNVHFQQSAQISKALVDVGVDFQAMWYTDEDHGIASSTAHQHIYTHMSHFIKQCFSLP
Procedure: as §1, §2, §3, §4, §5

SMILES	pIC50 [1]	pIC50 [2]
N[C@H](C(=O)N1CCSC1)[C@H]1CC[C@@H](N2CCN(c3nc4ccccc4s3)CC2)CC1 [Example 14, 3-((S)-2-amino-2-{cis-4-[4-(2-benzothiazolyl)-1-piperazinyl]-1-cyclohexyl}acetyl)-1,3-thiazolidine]	8.85	8.68
N#Cc1ccc(N2CCN([C@H]3CC[C@@H]([C@H](N)C(=O)N4CCSC4)CC3)CC2)nc1 [Example 2, 3-((S)-2-amino-2-{cis-4-[4-(5-cyano-2-pyridyl)-1-piperazinyl]-1-cyclohexyl}acetyl)-1,3-thiazolidine]	8.85	8.80
